Drawing on ChEMBL document CHEMBL5291721, “A preclinical secondary pharmacology resource illuminates target-adverse drug reaction associations of marketed drugs” (Nat Commun, 2023), this text covers AC50 for five compounds.

Test [1] concerns the target T1, Peroxisome proliferator-activated receptor gamma (Homo sapiens, UniProt P37231).
T1 sequence (P37231 whole entry): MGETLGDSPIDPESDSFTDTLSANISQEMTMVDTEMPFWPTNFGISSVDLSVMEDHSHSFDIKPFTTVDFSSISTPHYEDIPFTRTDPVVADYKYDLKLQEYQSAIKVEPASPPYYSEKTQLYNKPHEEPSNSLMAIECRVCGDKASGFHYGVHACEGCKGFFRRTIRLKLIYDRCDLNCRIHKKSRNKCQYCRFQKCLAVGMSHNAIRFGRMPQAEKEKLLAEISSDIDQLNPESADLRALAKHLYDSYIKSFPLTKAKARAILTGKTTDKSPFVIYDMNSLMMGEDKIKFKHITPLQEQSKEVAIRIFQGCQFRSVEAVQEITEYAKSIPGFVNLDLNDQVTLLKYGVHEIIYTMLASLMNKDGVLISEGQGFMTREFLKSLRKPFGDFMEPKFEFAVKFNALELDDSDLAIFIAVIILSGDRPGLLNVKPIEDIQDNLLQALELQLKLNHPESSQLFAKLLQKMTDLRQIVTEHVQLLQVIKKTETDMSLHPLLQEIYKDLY
It counts as functional.

Test [2] concerns the target T2, Thromboxane A2 receptor (Homo sapiens, UniProt P21731).
T2 sequence (P21731 whole entry): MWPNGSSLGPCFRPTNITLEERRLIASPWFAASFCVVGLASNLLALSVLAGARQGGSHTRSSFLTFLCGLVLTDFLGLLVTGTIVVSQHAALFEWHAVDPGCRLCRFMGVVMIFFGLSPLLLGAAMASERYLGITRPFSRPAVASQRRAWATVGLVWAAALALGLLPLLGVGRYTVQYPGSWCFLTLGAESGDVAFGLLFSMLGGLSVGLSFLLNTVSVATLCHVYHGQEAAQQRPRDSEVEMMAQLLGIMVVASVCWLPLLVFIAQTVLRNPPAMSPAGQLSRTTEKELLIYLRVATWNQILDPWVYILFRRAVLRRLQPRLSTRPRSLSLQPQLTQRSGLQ
It is filed as functional, cell-based.

The target of test [3] is T3, Muscarinic acetylcholine receptor M1 (Homo sapiens, UniProt P11229).
T3 sequence (P11229 whole entry): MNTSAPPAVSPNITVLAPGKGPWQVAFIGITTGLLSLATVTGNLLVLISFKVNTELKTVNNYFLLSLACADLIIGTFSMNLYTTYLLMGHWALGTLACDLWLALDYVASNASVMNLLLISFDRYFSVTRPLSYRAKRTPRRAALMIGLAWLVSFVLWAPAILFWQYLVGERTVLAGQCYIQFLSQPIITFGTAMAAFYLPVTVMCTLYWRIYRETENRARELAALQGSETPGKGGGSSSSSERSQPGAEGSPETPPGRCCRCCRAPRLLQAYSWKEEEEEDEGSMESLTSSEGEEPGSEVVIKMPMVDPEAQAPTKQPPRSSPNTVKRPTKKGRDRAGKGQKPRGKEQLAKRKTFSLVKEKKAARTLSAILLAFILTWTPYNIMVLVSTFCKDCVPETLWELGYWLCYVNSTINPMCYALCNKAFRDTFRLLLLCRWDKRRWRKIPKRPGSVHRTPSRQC
It is filed as functional.

In another test the target is T4, Estrogen receptor (Homo sapiens, UniProt P03372).
T4 sequence (P03372 whole entry): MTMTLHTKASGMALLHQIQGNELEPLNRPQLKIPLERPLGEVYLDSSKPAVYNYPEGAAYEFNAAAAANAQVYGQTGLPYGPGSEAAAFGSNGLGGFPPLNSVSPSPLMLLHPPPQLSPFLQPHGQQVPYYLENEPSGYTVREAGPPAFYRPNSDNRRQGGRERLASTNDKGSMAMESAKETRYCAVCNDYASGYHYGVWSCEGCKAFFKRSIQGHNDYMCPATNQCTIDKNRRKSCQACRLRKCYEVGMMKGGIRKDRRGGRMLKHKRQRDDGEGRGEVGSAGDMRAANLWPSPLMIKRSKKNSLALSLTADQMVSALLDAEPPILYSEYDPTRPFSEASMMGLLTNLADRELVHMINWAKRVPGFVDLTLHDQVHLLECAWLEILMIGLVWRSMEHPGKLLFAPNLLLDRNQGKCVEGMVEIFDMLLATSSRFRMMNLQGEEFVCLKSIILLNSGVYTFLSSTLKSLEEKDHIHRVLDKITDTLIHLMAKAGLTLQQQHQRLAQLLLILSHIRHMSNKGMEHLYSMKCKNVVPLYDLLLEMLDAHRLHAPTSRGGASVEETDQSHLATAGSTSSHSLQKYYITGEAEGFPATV
It is filed as functional.

The target of test [4] is T1, Peroxisome proliferator-activated receptor gamma. It is filed as functional. This is another data set of the same source.
Test [5] has as its target T2, Thromboxane A2 receptor. It is filed as functional.
In test [6] the target is Synaptic vesicular amine transporter (Rattus norvegicus, UniProt Q01827). It counts as functional.

A value given as a limit tells only on which side of the number the result lay.
Note: assay procedure not described here.

Sequence of Synaptic vesicular amine transporter (Q01827 whole entry): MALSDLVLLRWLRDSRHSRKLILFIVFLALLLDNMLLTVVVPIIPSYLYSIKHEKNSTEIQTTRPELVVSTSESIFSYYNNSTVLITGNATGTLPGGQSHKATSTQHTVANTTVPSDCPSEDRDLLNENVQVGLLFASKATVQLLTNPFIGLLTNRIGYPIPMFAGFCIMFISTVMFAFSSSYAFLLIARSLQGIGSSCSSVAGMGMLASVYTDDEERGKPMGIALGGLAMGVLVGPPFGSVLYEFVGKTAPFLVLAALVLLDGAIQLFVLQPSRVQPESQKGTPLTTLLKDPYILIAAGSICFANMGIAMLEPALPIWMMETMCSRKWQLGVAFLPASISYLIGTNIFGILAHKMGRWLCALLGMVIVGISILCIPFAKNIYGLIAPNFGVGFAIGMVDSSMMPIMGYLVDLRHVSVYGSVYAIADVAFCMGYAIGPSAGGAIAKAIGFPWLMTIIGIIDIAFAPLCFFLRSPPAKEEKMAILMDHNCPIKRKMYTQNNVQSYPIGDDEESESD

As to `CCOc1cc([C@@H](CS(C)(=O)=O)N2C(=O)c3cccc(NC(C)=O)c3C2=O)ccc1OC`, the AC50 (in test [1]; on Thromboxane A2 receptor [2]; in test [3]; on Estrogen receptor; in test [4]; at Thromboxane A2 receptor [5]) was over 30 µM in each case. The AC50 (usually the midpoint of the concentration-response curve, whichever way the signal moves) in test [6] is over 30 µM.

In the case of `Cc1nnc(SCC2=C(C(=O)O)N3C(=O)[C@@H](NC(=O)Cn4cnnn4)[C@H]3SC2)s1` [CEFAZOLIN], the concentration at half-maximal activity (AC50) (in test [1]; on Thromboxane A2 receptor [2]; in test [3]; at Estrogen receptor; in test [4]; on Thromboxane A2 receptor [5]) was over 300 µM throughout.

As for `CC(C)(O/N=C(\C(=O)N[C@@H]1C(=O)N2C(C(=O)[O-])=C(C[n+]3ccccc3)CS[C@H]12)c1csc(N)n1)C(=O)O` [CEFTAZIDIME], the half-maximal activity concentration (AC50) (on Thromboxane A2 receptor [2]; in test [3]; at Estrogen receptor; in test [4]; at Thromboxane A2 receptor [5]) was over 300 µM in each case.

On to `Cc1onc(-c2c(F)cccc2Cl)c1C(=O)N[C@@H]1C(=O)N2[C@@H]1SC(C)(C)[C@@H]2C(=O)O` [FLOXACILLIN], for which the half-maximal activity concentration (AC50) (in test [1]; on Thromboxane A2 receptor [2]; in test [3]; in test [4]; at Thromboxane A2 receptor [5]) was over 30 µM each time.

Take `S=P(N1CC1)(N1CC1)N1CC1` [THIOTEPA]: the concentration at half-maximal activity (AC50) in test [1] was over 30 µM; at Thromboxane A2 receptor [2], over 30 µM; on Estrogen receptor, over 30 µM; in test [4], over 30 µM; on Thromboxane A2 receptor [5] it was over 10 µM.
